Reference: PMC8224398, “SARS-CoV-2 mutations in MHC-I-restricted epitopes evade CD8^+ T cell responses” (Science Immunology, 2021)

Key:
[1] = molecular target: HLA-A*02:01 (Homo sapiens, UniProt P04439, D140Y/D185E/D98H/E176V/E277Q/G131W/G231S/I119V/I121R/I166T/I218V/L300P/L318F/N151K/N90K/P208A/P217A/Q86G/Q94H/R138H/R169H/T345S); assay type: binding
[2] = molecular target: HLA-B*40:01 (Homo sapiens, UniProt P01889, A65T/A93T/A95T/D138N/D98Y/E176V/E69K/N87E/Q56L/Q94N/R180L/S121R/S35A/S48T/T167S/V36M/W171L/Y33H/Y91S); assay type: binding
[3] = system: autologous EBV+ B cells pulsed with peptide; assay type: cell-based, human; conditions: 5 h at 37°C

Sequence | binding to HLA-A*02:01 (thermal stability of the peptide-MHC-I complex, DSF) [1] | binding to recombinant HLA-B*40:01 (DSF) [2] | killing of EBV+ B cells pulsed with the peptide by wild type YLQ expanded PBMCs [3] | killing of peptide-pulsed EBV+ B cells by PBMCs expanded with the peptide [3]
LALLLLDRL | did neither observe binding | – | – | –
LFFNKVTLA | non-binder | – | – | –
LQLPQGTTL | did neither observe binding | – | – | –
MEVTPSGTWL | not to HLA-A*02:01 | specific binding | – | –
YFQPRTFLL [YLQ mutant] | weak binder | – | failed to kill | failed to kill both wild type and mutant peptide pulsed EBV^+ B cells
YLQPRTFLL [YLQ wildtype] | – | – | specific killing | –
